Experimental data published in US20260306460A1, “COMPOSITION FOR REMOVING AND INHIBITING SENESCENT CELLS, AND USES THEREOF” (LIFECEUTIX CO., LTD., priority 2023, published 2026).

Key:
senescent cells = test: Viability of senescent cells (CellTiter-Glo), Example 17, Table 13; settings: Homo sapiens, read-out: Survival (%)
Experimental: Cells induced to undergo senescence by doxorubicin treatment were treated with test compound at designated concentrations and measured using the CellTiter-Glo Luminescent Cell Viability Assay (Promega).

senescent A549 cells = test: Viability of senescent A549 cells (CellTiter-Glo), Example 18, Table 15; settings: Homo sapiens, A549, read-out: Survival (%)
Experimental: Senescence-induced cancer cells treated with doxorubicin were treated with the test compound at designated concentrations, and cell viability was measured using the CellTiter-Glo Luminescent Cell Viability Assay (Promega).

| SMILES | viability at 1.1 µM (senescent cells) [%] | viability at 10 µM (senescent cells) [%] | viability at 30 µM (senescent cells) [%] | viability at 1.1 µM (senescent A549 cells) [%] | viability at 10 µM (senescent A549 cells) [%] | viability at 30 µM (senescent A549 cells) [%] | viability at 90 µM (senescent A549 cells) [%] |
| --- | --- | --- | --- | --- | --- | --- | --- |
| CCNCC[C@H](O)CNCCCCNC[C@@H](O)CCNCC [LX-6516, Ivospemin] | 93.3 | 71.1 | 31.8 | 91.7 | 79.6 | 27.6 |  |
| Nc1nc2nc[nH]c2c(=S)[nH]1 [LX-6530, Thioguanine] | 106 | 112 | 46.1 | 97.9 | 83.9 | 61.1 | 10.3 |
| C[C@@]12C[C@@]3(O)O[C@@H](O1)[C@]1(COC(=O)c4ccccc4)[C@H]3C[C@@]12O[C@@H]1O[C@H](CO)[C@@H](O)[C@H](O)[C@H]1O [LX-6804, Paeoniflorin] | 87.5 | 28.5 |  | 78.8 | 40.8 | 8.4 |  |
| Nc1cc(F)ccc1NC(=O)c1ccc(CNC(=O)/C=C/c2cccnc2)cc1 [LX-6809, Chidamide] | 87.5 | 53.3 | 17.8 | 100 | 63.7 | 23.9 |  |
| COc1ccc(F)cc1C(=O)NCc1ccc(-c2nn([C@@H](C)C(F)(F)F)c(N)c2C(N)=O)cc1 [LX-6981, Pirtobrutinib] | 0.2 |  |  | 43.1 |  |  |  |
| COc1ccc(CN2C3CC2CN(c2ccc(-c4cc(OCC(C)(C)O)cn5ncc(C#N)c45)cn2)C3)cn1 [LX-6988, Selpercatinib] | 93.5 | 53.7 | 3.7 | 98.2 | 46.3 | 5.7 |  |
| CCCCCCCC/C(=C\CCCCCCCC(=O)O)[N+](=O)[O-] [LX-7111, 10-Nitrooleic acid] | 78.1 | 22 |  | 79.2 | 43.7 | 0.8 |  |
| O=c1sn(-c2cccc3ccccc23)c(=O)n1Cc1ccccc1 [LX-7121, Tideglusib] | 94.7 | 57.9 | 3.9 | 76.5 | 52.4 | 12.8 |  |
| COc1ccc(C[C@@H](C)[C@@H](C)Cc2ccc(OC)c(OC)c2)cc1OC [LX-7122, Terameprocol] | 109 | 94.4 | 39.3 | 118 | 71.3 | 15.7 |  |
| Cn1cc(C2=C(c3cn(C4CCN(Cc5ccccn5)CC4)c4ccccc34)C(=O)NC2=O)c2ccccc21 [LX-7135, Enzastaurin] | 75.7 |  |  | 94.7 | 5.7 |  |  |
| Cc1ccccc1CN1C(=O)C2=C(CCN(Cc3ccccc3)C2)N2CCN=C12 [LX-7261, Dordaviprone] | 63.7 |  |  | 52.4 |  |  |  |
| O=C1C2=C(CCN(Cc3ccccc3)C2)N2CCN=C2N1Cc1ccc(F)cc1F [LX-7262] | 52.8 |  |  | 69.5 |  |  |  |
| Nc1ncn([C@H]2C[C@@H](O)[C@@H](CO)S2)c(=O)n1 [LX-7288, 4′-thio-5-aza-2′-deoxycytidine] | 41.8 |  |  | 48.3 |  |  |  |
| N=C(NC(=N)N1CCCC1)Nc1ccc(OC(F)(F)F)cc1 [LX-7403, Lixumistat] | 94.5 | 72.3 | 38.4 | 99.5 | 52.7 | 7.5 |  |
